# Data published in PMC9909341, “TLQP-21 is a low potency partial C3aR activator on human primary macrophages” (Frontiers in Immunology, 2023).
# Key:
# BMDM (murine C3aR) = format: cell-based, mouse
# Protocol: (§1) Mouse bone marrow-derived macrophages (BMDMs) were obtained and cultured as previously described ([20], [21]). All experiments using mice were approved by the University of Queensland animal ethics committee. Wild-type and C3aR^-/- mice on a C57BL/6J genetic background (n = 3) were sacrificed by cervical dislocation. The tibia was removed and sterilised. Upon removal of both epiphyses, bone marrow cells were harvested by flushing the central cavity with complete RPMI-1640 medium using a 10 ml syringe attached to a 25-gauge needle. Cells were then cultured in complete RPMI-1640 medium (containing 10 % FBS, 100 IU/ml penicillin, 100 μg/ml streptomycin) supplemented with 100 ng/ml recombinant human macrophage colony stimulating factor on 10 mm square dishes. Mature adherent macrophages for assays were harvested on day 6-7 by gentle scraping.
# Ligand-induced ERK1/2 phosphorylation was assessed using the AlphaLISA Surefire Ultra p-ERK1/2 (Thr202/Tyr204) kit (PerkinElmer, Melbourne, Australia) following the manufacturer’s protocol as previously described ([18], [20], [22]). Briefly, CHO-K1, CHO-C3aR, CHO-C5aR1, HMDMs (50,000/well) or BMDMs (90,000/well) were seeded in tissue culture-treated 96-well plates (Corning, Corning, USA) for 24 h and serum-starved overnight. All ligand dilutions were prepared in serum-free medium (SFM) containing 0.1% BSA. For inhibition assays, cells were pre-treated with the following ligands (5 µM SB290157, or respective concentrations of hC3a, mC3a, hC5a, hTLQP-21, and mTLQP-21) or the solvent-only control for 30 min before agonist (hC3a, hTLQP-21 and mTLQP-21) addition. The concentration and identity of the ligands are described in detail in the figure legends. For stimulation, cells were treated with ligands at the indicated concentrations for 10 min at RT and then immediately lysed using AlphaLISA lysis buffer on a microplate shaker (450 rpm, 10 min). For the detection of phospho-ERK1/2 content, cell lysate (5 μL/well) was transferred to a 384-well ProxiPlate (PerkinElmer, Melbourne, Australia) and added to the donor and acceptor reaction mix (2.5 μL/well, respectively), followed by a 2-h incubation at RT in the dark. On a Tecan Spark 20M (Tecan, Männedorf, Switzerland), the plate was measured using standard AlphaLISA settings.
# All experiments were conducted in triplicates and repeated on three separate occasions unless otherwise specified. Data was analysed using GraphPad software (Prism 9.1). Data from each individual repeat was normalised accordingly (as specified in the figure legends) before being combined and expressed as mean ± standard error of the mean (S.E.M.) unless otherwise described. For all dose-response studies, logarithmic concentration-response curves were plotted using combined data and analysed to determine the respective potency values. Statistical analysis was performed using two-way ANOVA with Dunnett’s post hoc analysis. Donor-matched comparisons were made for HMDM experiments. Differences were deemed significant when p < 0.05.
# Figure 4 TLQP-21 triggers ERK signalling through C3aR in murine bone marrow-derive macrophages. BMDMs (90,000/well) from wildtype mice (A) or with C3aR knockout mice (B), were serum-starved overnight and then stimulated with respective ligands at the indicated concentrations for 10 min. The phospho-ERK1/2 content in the cell lysate was measured and normalised to the medium only-treated levels before being combined. Data represent mean ± S.E.M. of triplicate measurements using cells from 3 mice (n = 3).
# HMDMs = experiment: homologous desensitisation control in HMDMs; format: cell-based, human; settings: pre-treatment 10 nM hC3a, 10 μM hTLQP-21 or mTLQP-21 for 30 min, then same ligand 10 min
# Description: HMDMs were generated and cultured as previously described ([20]), with experiments approved by The University of Queensland Human Research Ethics Committee. Briefly, human buffy coat blood from anonymous healthy donors was obtained through the Australian Red Cross Blood Service (Brisbane, Australia). Human CD14+ monocytes were isolated from blood using Lymphoprep density centrifugation (STEMCELL, Melbourne, Australia) followed by CD14+ MACS magnetic bead separation (Miltenyi Biotec, Sydney, Australia). […]
# (§2) Ligand-induced ERK1/2 phosphorylation was assessed using the AlphaLISA Surefire Ultra p-ERK1/2 (Thr202/Tyr204) kit (PerkinElmer, Melbourne, Australia) following the manufacturer’s protocol as previously described ([18], [20], [22]). […] On a Tecan Spark 20M (Tecan, Männedorf, Switzerland), the plate was measured using standard AlphaLISA settings.
# Figure 3 Agonistic and antagonistic activities of hTLQP-21 and mTLQP-21 in human monocyte-derived macrophages. […] The phospho-ERK1/2 content in the cell lysate was measured and normalised to the maximum hC3a/hC5a-induced levels before being combined. […]
# C3aR-deficient BMDMs = experiment: phospho-ERK1/2 assay in C3aR-deficient BMDMs; format: cell-based, mouse; settings: 10 min stimulation; n = 3 mice
# Protocol: as §1, with “Mature adherent macrophages for assays were harvested on day 6-7 by gentle scraping.” left out
# as §2
# Figure 4 TLQP-21 triggers ERK signalling through C3aR in murine bone marrow-derive macrophages. […] The phospho-ERK1/2 content in the cell lysate was measured and normalised to the medium only-treated levels before being combined. […]
substance,measurement,setting,value
"C3a: Table 1 label: human C3a in CHO-C3aR and HMDM, recombinant mouse C3a in BMDM","% C3a activity ± SE, BMDM","BMDM (murine C3aR); relative to mC3a, wild-type BMDMs",100 ± 4.1%
same,"logEC50 ± SE (pERK1/2), BMDM","BMDM (murine C3aR); wild-type BMDMs, 10 min stimulation at RT, C3a is recombinant mouse C3a",-8.1 ± 0.1
same,EC50,"BMDM (murine C3aR); wild-type C57BL/6J BMDMs, 90,000/well, 10 min stimulation at RT, AlphaLISA p-ERK1/2, n = 3 mice, C3a is recombinant mouse C3a, read-out: EC50 (pERK1/2), BMDM",8.4 nM
"hC3a: purified (plasma-derived) human C3a, purchased from Merck",homologous desensitisation of ERK activity,HMDMs,significantly dampened the subsequent ERK activity triggered by these ligands
same,ERK signalling in C3aR-deficient BMDMs,C3aR-deficient BMDMs,"Neither hC3a, nor the TLQP-21 peptides caused any significant ERK signalling activity in C3aR-deficient cells"
